Here are results for one molecule from US20020090402A1, “Pharmaceutical composition against type I allergy and the preparation thereof” (priority 2000, published 2002).

The experiment has as its system passive skin sensitization for the rats. The experiment can be described thus: anti-allergic pharmacodynamics: passive skin sensitization of rats (anti-trichosanthes serum, Evans blue, 620 nm colorimetry). Conditions: rat, 5 mg/Kg IV one minute before second sensitization. Format: in vivo, Wistar male rats. The source says:
Research of anti-allergic pharmacodynamics of the pharmaceutical composition of the present invention
Wistar male rats with body weight of 100˜120 g were used, which were provided by the Experimental Animal Center of the Chinese Academy of Medical Sciences.
1. Tablets of this pharmaceutical composition obtained from Example 1 of this invention. It was made into a suspension with 0.5%CMC-Na.
2. Positive contrast medicament: disodium chromoglycate (produced by Shanghai Pharmaceutical Factory No. 5). It is dissolved with normal saline when it is used.
After the rats were divided in groups at random, they were lavaged and dosed with the above-mentioned pharmaceutical composition of this invention according to 6 g/Kg and 3 g/Kg, once a day, continuously for 10 days. After hair on their backs of all groups of animals was removed, said animals were sensitized for the first time with hypodermic injection with anti-trichosanthes serum. At the same time, the dosing groups took the pharmaceutical composition according to 6 g/Kg, two hours before the second sensitization. The positive contrast groups were dosed with IV of disodium chromoglycate in accordance of 5 mg/Kg, one minute before the second sensitization was made. All groups of animals were given with IV of 1% EVANSLAN (including trichosanthes protein of 1 mg/ml) in accordance with 1 mg/Kg for the second sensitization. […]

Take `O=C([O-])c1cc(=O)c2c(OCC(O)COc3cccc4oc(C(=O)[O-])cc(=O)c34)cccc2o1.[Na+].[Na+]` [Positive contrast, disodium chromoglycate]: the Inhibition rate was determined as 78.2%. Also, where the note is “620 nm”, the “OD value (X ± SD)” value worked out at 0.19 ± 0.11.
